From patent US20240100125A1 (ENYO PHARMA, priority 2021, published 2024)

How the values were obtained:
HBV [1] = test: 4-week treatment course in HBV chronically infected patients: HBV replication markers (pgRNA, HBcrAg, HBsAg); type: in vivo, human
FXR = FXR engagement markers (C4, FGF19) in HBV chronically infected patients; type: in vivo, human; settings: all EYP001 doses; data not shown
[2] = Pruritus under EYP001 once a day versus twice a day in combined treatment with IFN-α; type: in vivo, human; settings: EYP001 once a day rather than twice a day
Experimental: Therefore, in a particular aspect, the FXR agonist is administered once a day.

HBV [3] = settings: chronic hepatitis B patients; cited from earlier work
[4] = system: HBV infected primary human hepatocytes (PHH); test: HBV replication in infected primary human hepatocytes (PHH), FXR agonist +/- IFN-alpha; type: cell-based; settings: treated day 4 to 10 post-infection, harvested day 10, GW4064 1 or 10 uM, IFN-alpha 100 IU/mL
Experimental: FIG. 3. […] Freshly prepared and seeded PHH were infected with HBV at a multiplicity of infection of 250 GE/cell. From day 4 to 10 post-infection, cells were treated with […], +/−IFN-alpha at 100 IU/mL, or vehicle (NT), or IFN-alpha at 100 IU/mL alone. Cells and supernatants were harvested at day 10 for intracellular HBV RNA, viremia, and secreted antigens (HBsAg and HBeAg) quantification. Results are the mean+/−SD of one experiment performed with three biological replicates.
FIG. 4. […] Freshly prepared and seeded PHH were infected with HBV at a multiplicity of infection of 250 GE/cell. From day 4 to 10 post-infection, cells were treated with Vonafexor at 10 uM, or Nidufexor at 10 uM, or Tropifexor at 1 uM, or OCA at 10 uM, or GW4064 at 10 uM, +/−IFN-alpha (IFN) at 100 IU/mL, or vehicle, or IFN-alpha at 100 IU/mL alone. Supernatants were harvested at day 10 for secreted HBs antigen (HBsAg) quantification. Results are the mean+/−SEM of five experiments performed with three replicates.
Supernatants containing HBV particles were clarified (0.45 μm filter) and concentrated with 8% PEG 8000 (Sigma-Aldrich).
HBV DNA was quantified using the AmpliPrep/COBAS® TaqMan® HBV Test (Roche).
HBs and HBe antigens secreted in cells supernatant were quantified, after required dilutions, with Autobio kits (AutoBio, China) according to manufacturer's protocol.
Total RNA was prepared using NucleoSpin RNA Plus (Macherey-Nagel). After DNA digestion with TURBO DNase (Ambion), maximum 1000 ng RNA were reverse-transcribed using High-Capacity RNA-to-cDNA kit (Thermo Fisher Scientific). […] All assays were performed in triplicate.
HBs antigen secreted in cells supernatant were quantified, after required dilutions, with Autobio kits (AutoBio, China) according to manufacturer's protocol.
PHH are naturally susceptible to infection with HBV virions produced in vitro, leading to very high levels of replication of the virus.

[5] = change from baseline at end of 4-week treatment (day 29), ETV open-label 0.5 mg/day
[6] = change from baseline at day 29, EYP001a 1 × 100 mg/day oral monotherapy
[7] = change from baseline at day 29, EYP001a 1 × 200 mg/day oral monotherapy
[8] = change from baseline at day 29, EYP001a 1 × 400 mg/day oral monotherapy
[9] = change from baseline at day 29, EYP001a 2 × 200 mg/day oral monotherapy

## C=C1[C@H](CO)[C@@H](O)C[C@@H]1n1cnc2c(=O)[nH]c(N)nc21 [ETV, entecavir, reference compound]
HBV [1]; [5]
  HBVpgRNA Mean: −0.3 Log10 Copies mL
  HBcrAg Mean: 0.03 Log10 IU mL

## O=C(O)c1cc2c(Cl)c(N3CCN(S(=O)(=O)c4c(Cl)cccc4Cl)CC3)ccc2o1 [EYP001a]
HBV [1]; [6]
  HBVpgRNA Mean: 0.5 Log10 Copies mL
  HBcrAg Mean: −0.3 Log10 IU mL
HBV [1]; [7]
  HBVpgRNA Mean: 0.4 Log10 Copies mL
  HBcrAg Mean: 0.2 Log10 IU mL
HBV [1]; [8]
  HBVpgRNA Mean: 0.2 Log10 Copies mL
  HBcrAg Mean: 0.02 Log10 IU mL
HBV [1]; [9]
  HBVpgRNA Mean: −0.1 Log10 Copies mL
  HBcrAg Mean: 1.2 Log10 IU mL
HBV [1]; end of treatment on day 29, 400 mg QD EYP001, p<0.05
  mean HBsAg decrease: −0.1 log 10 IU/mL
FXR
  C4: decreases
  FGF19: increases
[2]
  pruritus: fewer pruritus
HBV [3]
  HBV viral load: reduces HBV viral load

## CC(C)c1onc(-c2c(Cl)cccc2Cl)c1COc1ccc(/C=C/c2cccc(C(=O)O)c2)c(Cl)c1 [GW4064, 3-[2-[2-Chloro-4-[[3-(2,6-dichlorophenyl)-5-(1-methylethyl)-4-isoxazolyl]methoxy]phenyl]ethenyl]benzoic acid]
[4]
  HBeAg secretion: reduce in a dose response manner
  HBsAg secretion: unable to significantly impact
  intracellular HBV RNA level: reduce in a dose response manner
  viremia: unable to significantly impact
